Data from the kinase profiling compilation of Christmann-Franck et al. (2016).

Experiments:
[1] = target: MAP3K12 (human) (UniProt Q12852)
[2] = target: MAPK11 (human) (UniProt Q15759); assay: KINOMEscan competition binding; details: compound 10.0 µM
[3] = target: MAP3K7 (human) (UniProt O43318); assay: KINOMEscan competition binding; details: compound 10.0 µM
[4] = target: MKNK1 (human) (UniProt Q9BUB5); assay: KINOMEscan competition binding; details: compound 10.0 µM
[5] = target: SRPK3 (human) (UniProt Q9UPE1); assay: KINOMEscan competition binding; details: compound 10.0 µM
[6] = target: PIP5K1A (human) (UniProt Q99755); assay: KINOMEscan competition binding; details: compound 10.0 µM
[7] = target: LRRK2 (human) (UniProt Q5S007); assay: KINOMEscan competition binding; details: compound 10.0 µM
[8] = target: CDK3 (human) (UniProt Q00526); assay: KINOMEscan competition binding; details: compound 10.0 µM
[9] = target: PIM1 (human) (UniProt P11309); assay: KINOMEscan competition binding; details: compound 10.0 µM
[10] = target: STK32C (human) (UniProt Q86UX6); assay: KINOMEscan competition binding; details: compound 10.0 µM
[11] = target: NEK1 (human) (UniProt Q96PY6); assay: KINOMEscan competition binding; details: compound 10.0 µM
[12] = target: NEK6 (human) (UniProt Q9HC98); assay: KINOMEscan competition binding; details: compound 10.0 µM
[13] = target: MET (human) (UniProt P08581); assay: KINOMEscan competition binding; details: compound 10.0 µM
[14] = target: MAP3K9 (human) (UniProt P80192); assay: KINOMEscan competition binding; details: compound 10.0 µM
[15] = target: AAK1 (human) (UniProt Q2M2I8); assay: KINOMEscan competition binding; details: compound 10.0 µM
[16] = target: AKT1 (human) (UniProt P31749); assay: KINOMEscan competition binding; details: compound 10.0 µM
[17] = target: CASK (human) (UniProt O14936); assay: KINOMEscan competition binding; details: compound 10.0 µM
[18] = target: HIPK1 (human) (UniProt Q86Z02); assay: KINOMEscan competition binding; details: compound 10.0 µM
[19] = target: INSR (human) (UniProt P06213); assay: KINOMEscan competition binding; details: compound 10.0 µM
[20] = target: IGF1R (human) (UniProt P08069); assay: KINOMEscan competition binding; details: compound 10.0 µM
[21] = target: PKN1 (human) (UniProt Q16512); assay: KINOMEscan competition binding; details: compound 10.0 µM
[22] = target: DCLK1 (human) (UniProt O15075); assay: KINOMEscan competition binding; details: compound 10.0 µM
[23] = target: CLK3 (human) (UniProt P49761); assay: KINOMEscan competition binding; details: compound 10.0 µM
[24] = target: NLK (human) (UniProt Q9UBE8); assay: KINOMEscan competition binding; details: compound 10.0 µM
[25] = target: PDPK1 (human) (UniProt O15530); assay: KINOMEscan competition binding; details: compound 10.0 µM
[26] = target: DYRK1B (human) (UniProt Q9Y463); assay: KINOMEscan competition binding; details: compound 10.0 µM
[27] = target: TEK (human) (UniProt Q02763); assay: KINOMEscan competition binding; details: compound 10.0 µM
[28] = target: SRC (human) (UniProt P12931); assay: KINOMEscan competition binding; details: compound 10.0 µM
[29] = target: CDK16 (human) (UniProt Q00536); assay: KINOMEscan competition binding; details: compound 10.0 µM
[30] = target: BTK (human) (UniProt Q06187); assay: KINOMEscan competition binding; details: compound 10.0 µM
[31] = target: JAK3 JH1 catalytic (human) (UniProt P52333); assay: KINOMEscan competition binding; details: compound 10.0 µM
[32] = target: STK11 (human) (UniProt Q15831); assay: KINOMEscan competition binding; details: compound 10.0 µM
[33] = tested on: KIT (human), P10721 [D816V]; assay: KINOMEscan competition binding; details: compound 10.0 µM
[34] = tested on: KIT (human), P10721 [V559D/T670I]; assay: KINOMEscan competition binding; details: compound 10.0 µM
[35] = target: ERN1 (human) (UniProt O75460); assay: KINOMEscan competition binding; details: compound 10.0 µM
[36] = target: ZAP70 (human) (UniProt P43403); assay: KINOMEscan competition binding; details: compound 10.0 µM
[37] = target: NUAK2 (human) (UniProt Q9H093); assay: KINOMEscan competition binding; details: compound 10.0 µM
[38] = target: RIOK2 (human) (UniProt Q9BVS4); assay: KINOMEscan competition binding; details: compound 10.0 µM
[39] = target: ANKK1 (human) (UniProt Q8NFD2); assay: KINOMEscan competition binding; details: compound 10.0 µM
[40] = target: RPS6KA3 KD1 (human) (UniProt P51812); assay: KINOMEscan competition binding; details: compound 10.0 µM
[41] = target: ACVR2B (human) (UniProt Q13705); assay: KINOMEscan competition binding; details: compound 10.0 µM
Sequence of ACVR2B (human) (Q13705 whole entry, looked up): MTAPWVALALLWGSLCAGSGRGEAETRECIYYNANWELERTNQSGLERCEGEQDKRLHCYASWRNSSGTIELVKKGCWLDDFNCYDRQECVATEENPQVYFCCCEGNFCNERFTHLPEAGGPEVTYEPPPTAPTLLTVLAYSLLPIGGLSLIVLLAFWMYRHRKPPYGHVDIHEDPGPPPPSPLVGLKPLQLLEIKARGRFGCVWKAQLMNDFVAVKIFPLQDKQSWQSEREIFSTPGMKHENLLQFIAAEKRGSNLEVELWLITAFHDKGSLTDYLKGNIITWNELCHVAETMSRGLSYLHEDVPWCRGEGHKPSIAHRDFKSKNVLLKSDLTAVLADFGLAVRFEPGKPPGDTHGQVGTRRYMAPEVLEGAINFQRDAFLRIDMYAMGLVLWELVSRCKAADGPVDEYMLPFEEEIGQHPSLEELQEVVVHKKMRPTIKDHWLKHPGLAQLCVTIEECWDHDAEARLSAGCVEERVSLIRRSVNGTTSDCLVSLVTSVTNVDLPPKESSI

Sequence of ERN1 (human) (O75460 whole entry, looked up): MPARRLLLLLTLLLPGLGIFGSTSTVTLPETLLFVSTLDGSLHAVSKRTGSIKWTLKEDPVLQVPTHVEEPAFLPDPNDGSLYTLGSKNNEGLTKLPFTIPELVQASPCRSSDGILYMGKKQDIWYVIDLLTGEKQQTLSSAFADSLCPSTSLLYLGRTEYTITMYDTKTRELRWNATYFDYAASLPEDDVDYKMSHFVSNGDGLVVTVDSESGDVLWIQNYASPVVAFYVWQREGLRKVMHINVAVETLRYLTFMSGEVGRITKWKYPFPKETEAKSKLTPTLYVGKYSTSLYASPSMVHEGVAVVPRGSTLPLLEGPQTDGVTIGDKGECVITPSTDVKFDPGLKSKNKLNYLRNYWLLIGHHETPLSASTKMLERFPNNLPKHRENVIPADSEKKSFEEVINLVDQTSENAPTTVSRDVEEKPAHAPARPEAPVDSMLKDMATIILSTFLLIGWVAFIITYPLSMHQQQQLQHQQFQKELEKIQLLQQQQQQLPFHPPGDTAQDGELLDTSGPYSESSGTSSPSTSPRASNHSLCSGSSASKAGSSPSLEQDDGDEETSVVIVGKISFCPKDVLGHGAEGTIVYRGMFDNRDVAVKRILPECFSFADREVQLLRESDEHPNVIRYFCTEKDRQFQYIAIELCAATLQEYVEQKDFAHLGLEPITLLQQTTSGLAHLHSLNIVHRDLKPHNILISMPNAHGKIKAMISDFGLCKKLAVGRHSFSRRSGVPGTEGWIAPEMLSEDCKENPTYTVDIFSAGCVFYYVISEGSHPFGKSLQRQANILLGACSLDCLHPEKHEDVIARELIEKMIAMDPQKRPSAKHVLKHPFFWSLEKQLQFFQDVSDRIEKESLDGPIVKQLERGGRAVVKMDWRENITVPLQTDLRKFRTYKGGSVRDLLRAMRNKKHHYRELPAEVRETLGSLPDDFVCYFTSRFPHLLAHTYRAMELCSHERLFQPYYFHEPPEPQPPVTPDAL
Sequence of JAK3 JH1 catalytic (human) (P52333 whole entry, looked up): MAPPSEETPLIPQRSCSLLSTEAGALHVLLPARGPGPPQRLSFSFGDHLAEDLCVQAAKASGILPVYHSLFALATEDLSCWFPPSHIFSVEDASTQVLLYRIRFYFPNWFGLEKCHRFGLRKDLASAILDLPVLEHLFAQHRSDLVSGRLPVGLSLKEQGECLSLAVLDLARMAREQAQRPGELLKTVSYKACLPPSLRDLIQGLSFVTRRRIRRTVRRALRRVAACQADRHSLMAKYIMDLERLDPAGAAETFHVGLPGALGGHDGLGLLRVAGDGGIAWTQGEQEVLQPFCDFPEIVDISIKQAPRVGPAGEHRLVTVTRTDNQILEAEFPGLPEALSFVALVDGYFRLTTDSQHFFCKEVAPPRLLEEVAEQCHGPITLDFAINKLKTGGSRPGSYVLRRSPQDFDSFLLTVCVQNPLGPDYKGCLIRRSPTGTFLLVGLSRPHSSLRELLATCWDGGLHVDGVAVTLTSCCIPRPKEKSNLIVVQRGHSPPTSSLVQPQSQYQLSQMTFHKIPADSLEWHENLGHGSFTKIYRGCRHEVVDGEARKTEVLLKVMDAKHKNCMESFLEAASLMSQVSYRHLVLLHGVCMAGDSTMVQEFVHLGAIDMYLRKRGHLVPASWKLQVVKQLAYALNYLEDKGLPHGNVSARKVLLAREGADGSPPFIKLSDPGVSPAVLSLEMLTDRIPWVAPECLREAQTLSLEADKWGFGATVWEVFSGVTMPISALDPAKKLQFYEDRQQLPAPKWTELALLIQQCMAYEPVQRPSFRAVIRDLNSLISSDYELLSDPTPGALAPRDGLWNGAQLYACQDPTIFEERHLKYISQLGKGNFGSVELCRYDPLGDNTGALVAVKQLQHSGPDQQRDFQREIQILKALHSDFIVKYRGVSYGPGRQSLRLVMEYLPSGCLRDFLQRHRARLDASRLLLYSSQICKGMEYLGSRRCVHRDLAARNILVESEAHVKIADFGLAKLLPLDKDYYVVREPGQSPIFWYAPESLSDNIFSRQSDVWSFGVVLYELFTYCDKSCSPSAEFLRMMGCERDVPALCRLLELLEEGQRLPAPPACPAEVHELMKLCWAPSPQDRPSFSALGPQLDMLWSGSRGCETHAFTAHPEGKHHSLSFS
Sequence of CLK3 (human) (P49761 whole entry, looked up): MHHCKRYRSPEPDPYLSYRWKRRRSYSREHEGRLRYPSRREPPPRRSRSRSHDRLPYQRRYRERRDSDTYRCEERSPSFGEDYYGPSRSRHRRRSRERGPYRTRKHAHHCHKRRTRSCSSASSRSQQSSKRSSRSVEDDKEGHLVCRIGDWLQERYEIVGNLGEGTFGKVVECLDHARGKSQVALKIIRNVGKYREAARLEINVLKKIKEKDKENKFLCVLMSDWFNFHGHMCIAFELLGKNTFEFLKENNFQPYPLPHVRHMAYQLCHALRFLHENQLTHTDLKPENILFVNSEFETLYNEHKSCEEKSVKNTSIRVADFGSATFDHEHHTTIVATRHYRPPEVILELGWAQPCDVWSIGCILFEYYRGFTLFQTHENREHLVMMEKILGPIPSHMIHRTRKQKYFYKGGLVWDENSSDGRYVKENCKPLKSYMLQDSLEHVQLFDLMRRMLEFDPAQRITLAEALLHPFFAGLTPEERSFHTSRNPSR
Sequence of PIM1 (human) (P11309 whole entry, looked up): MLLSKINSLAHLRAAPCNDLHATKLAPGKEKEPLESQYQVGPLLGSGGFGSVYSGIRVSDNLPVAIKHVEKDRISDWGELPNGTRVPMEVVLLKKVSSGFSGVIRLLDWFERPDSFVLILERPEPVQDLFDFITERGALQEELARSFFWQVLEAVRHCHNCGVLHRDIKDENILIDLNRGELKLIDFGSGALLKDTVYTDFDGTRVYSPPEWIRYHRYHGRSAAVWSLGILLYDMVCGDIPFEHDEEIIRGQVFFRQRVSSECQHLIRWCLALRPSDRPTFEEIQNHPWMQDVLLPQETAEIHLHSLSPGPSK
Sequence of CASK (human) (O14936 whole entry, looked up): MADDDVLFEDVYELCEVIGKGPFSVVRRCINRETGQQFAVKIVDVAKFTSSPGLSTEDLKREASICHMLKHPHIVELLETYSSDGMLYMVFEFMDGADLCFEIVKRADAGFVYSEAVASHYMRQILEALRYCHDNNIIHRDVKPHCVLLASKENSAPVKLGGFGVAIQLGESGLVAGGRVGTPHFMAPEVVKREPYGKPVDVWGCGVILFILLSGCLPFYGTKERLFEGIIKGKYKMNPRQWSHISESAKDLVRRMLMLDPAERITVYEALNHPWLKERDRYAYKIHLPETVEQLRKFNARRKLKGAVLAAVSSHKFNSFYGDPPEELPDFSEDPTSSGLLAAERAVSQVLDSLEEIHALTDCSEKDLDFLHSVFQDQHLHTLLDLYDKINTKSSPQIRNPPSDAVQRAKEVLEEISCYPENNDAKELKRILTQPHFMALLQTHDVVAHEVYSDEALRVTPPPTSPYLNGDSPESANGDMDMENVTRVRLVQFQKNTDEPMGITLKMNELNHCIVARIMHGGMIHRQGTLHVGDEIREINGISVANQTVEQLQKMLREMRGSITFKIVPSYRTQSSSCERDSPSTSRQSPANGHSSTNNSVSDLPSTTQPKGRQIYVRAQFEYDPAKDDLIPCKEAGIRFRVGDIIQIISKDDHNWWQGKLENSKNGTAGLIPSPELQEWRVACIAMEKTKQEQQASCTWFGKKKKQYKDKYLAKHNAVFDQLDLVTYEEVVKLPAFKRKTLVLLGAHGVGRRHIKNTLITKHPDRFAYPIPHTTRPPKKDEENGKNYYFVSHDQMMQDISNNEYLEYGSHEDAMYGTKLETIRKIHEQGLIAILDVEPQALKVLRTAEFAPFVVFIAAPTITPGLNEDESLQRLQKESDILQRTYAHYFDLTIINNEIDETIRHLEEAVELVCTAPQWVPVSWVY
Sequence of MAPK11 (human) (Q15759 whole entry, looked up): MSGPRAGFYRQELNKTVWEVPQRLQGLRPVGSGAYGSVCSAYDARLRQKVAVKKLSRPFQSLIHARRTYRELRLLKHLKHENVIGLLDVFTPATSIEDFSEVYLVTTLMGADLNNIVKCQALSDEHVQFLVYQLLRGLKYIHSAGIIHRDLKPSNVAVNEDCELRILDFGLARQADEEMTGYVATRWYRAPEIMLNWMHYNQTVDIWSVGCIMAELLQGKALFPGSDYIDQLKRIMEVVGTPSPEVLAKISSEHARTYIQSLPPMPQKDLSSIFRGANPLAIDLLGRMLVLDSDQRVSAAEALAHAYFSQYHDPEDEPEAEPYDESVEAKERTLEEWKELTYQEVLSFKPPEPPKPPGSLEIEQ
Sequence of NEK6 (human) (Q9HC98 whole entry, looked up): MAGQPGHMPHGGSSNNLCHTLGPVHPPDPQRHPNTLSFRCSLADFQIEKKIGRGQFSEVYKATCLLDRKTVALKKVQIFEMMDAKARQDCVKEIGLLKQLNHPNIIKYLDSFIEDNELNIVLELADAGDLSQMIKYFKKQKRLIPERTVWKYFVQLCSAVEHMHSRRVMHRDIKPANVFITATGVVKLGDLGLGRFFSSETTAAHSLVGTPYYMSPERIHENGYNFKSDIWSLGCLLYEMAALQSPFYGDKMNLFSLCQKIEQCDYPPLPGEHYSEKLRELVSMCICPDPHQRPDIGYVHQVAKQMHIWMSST

O=C(Nc1ccc(Oc2ncnc3[nH]ncc23)cc1)Nc1ccc(Cl)c(C(F)(F)F)c1 was tested, and the IC50 [1] was > 10 µM, the kinase still bound, per cent of control [2] was 1.2% and the kinase still bound, per cent of control [3] was 7.2%. It also gave a kinase still bound, per cent of control [4] of 5.4%, a kinase still bound, per cent of control [5] of 100% and a kinase still bound, per cent of control [6] of 73%. For the same compound, the kinase still bound, per cent of control [7] was 83%, the kinase still bound, per cent of control [8] was 44% and the kinase still bound, per cent of control [9] was 90%. The kinase still bound, per cent of control [10] was 96%, the kinase still bound, per cent of control [11] was 85% and the kinase still bound, per cent of control [12] was 100%. The kinase still bound, per cent of control [13] was 58%, the kinase still bound, per cent of control [14] was 100% and the kinase still bound, per cent of control [15] was 85%. For the same compound, the kinase still bound, per cent of control [16] was 100%, the kinase still bound, per cent of control [17] was 20% and the kinase still bound, per cent of control [18] was 52%. The kinase still bound, per cent of control [19] was 84%, the kinase still bound, per cent of control [20] was 100% and the kinase still bound, per cent of control [21] was 100%. For the same compound, the kinase still bound, per cent of control [22] was 82%, the kinase still bound, per cent of control [23] was 65% and the kinase still bound, per cent of control [24] was 44%. For the same compound, the kinase still bound, per cent of control [25] was 89%, the kinase still bound, per cent of control [26] was 96% and the kinase still bound, per cent of control [27] was 25%. The kinase still bound, per cent of control [28] was 70%, the kinase still bound, per cent of control [29] was 98% and the kinase still bound, per cent of control [30] was 96%. It also gave a kinase still bound, per cent of control [31] of 75%, a kinase still bound, per cent of control [32] of 97% and a kinase still bound, per cent of control [33] of 1.7%. The kinase still bound, per cent of control [34] was 0.15%, the kinase still bound, per cent of control [35] was 100% and the kinase still bound, per cent of control [36] was 100%. It also gave a kinase still bound, per cent of control [37] of 73%, a kinase still bound, per cent of control [38] of 100% and a kinase still bound, per cent of control [39] of 89%. The kinase still bound, per cent of control [40] was 100% and the kinase still bound, per cent of control [41] was 100%.
